Assay results reported in patent US20150018301A1, “LRRK-2-Mediated Neuronal Toxicity” (THE JOHNS HOPKINS UNIVERSITY, priority 2009, published 2015).

Experiments:
Assay type in all cases: biochemical
LRRK1 WT [1] = molecular target: T1, LRRK1 WT (Homo sapiens, UniProt Q38SD2); assay: In vitro kinase assay: LRRK1-mediated MBP phosphorylation; settings: for IC50: Table 3, mean of three experiments
G2019S LRRK2 = G2019S LRRK2 (Homo sapiens, UniProt Q5S007, G2019S); assay: In vitro kinase assay: LRRK2-mediated phosphorylation of 4E-BP1
Description: The GST-4E-BP1 expressing vector was generated using the Invitrogen Gateway LR Clonase System. Briefly, an entry clone containing the 4E-BP1 sequence was reacted with the destination vector, pDEST-15 in the presence of the LR clonase mixture. After the clonase reaction, the mixture was transformed into One Shot BL21 chemically competent E. coli. The transformed cells were grown on ampicillin containing LB agar plate for one day at 37° C. Colonies containing GST-4E-BP1 were isolated. For protein induction, 100 μM IPTG was added to 100 mL culture and incubated for 3 h at 30° C. After IPTG incubation, cells were collected by centrifugation at 3,000×g for 15 min. The pellet was lysed with sonication in the presence of lysis butter containing 0.5% TX-100, 50 mM Tris-HCl (pH 8.0), 100 mM NaCl, 0.5 mM EGTA, 5 mM MgCl2, 2 mM DTT, and complete protease inhibitors. The lysate was centrifugated at 15,000×g for 15 min and the supernatant was incubated with GSH-sepharose beads for 2 h at 4° C. After incubation, the beads were washed with PBS containing an additional 150 mM NaCl and 0.1% TX-100 three times. The protein was eluted with elution buffer containing Hepes (pH 8.0), 150 mM NaCl, 30% glycerol, and 30 mM glutathione. The eluted proteins were stored at −80° C.
The in vitro kinase assay was performed as previously described. West, A. B. et al. Parkinson's disease-associated mutations in leucine-rich repeat kinase 2 augment kinase activity. Proc Natl Acad Sci USA 102, 16842-16847 (2005). Recombinant LRRK2 and MBP or CST-4E-BP1 were combined before the kinase reaction. LRRK2 autophosphorylation is LRRK2 itself phosphorylation and MBP or GST-4E-BP1 phosphorylation is induced by LRRK2. After the kinase reaction, combined LRRK2 and MBP or GST-4E-BP1 were loaded on SDSPAGE and phosphorylated LRRK2 and MBP or GST-4E-BP1 could be detected separately an a single gel. Recombinant proteins and inhibitors were incubated at 30° C. in kinase assay buffer containing 20 mM Hepes (pH 7.4), 5 mM EGTA, and 20 mM β-glycerol phosphate. 0.5 μg MBP (Upstate) or 0.5 μg GST-4B-BP1, 50 μM ATP (Sigma), 20 mM MgCl2, and 1 μCi [γ-32P] ATP (PerkinElmer) was added after 5 min. The reaction was performed at 30° C. to reduce non-specific 32P incorporation for 15 min and terminated by the addition of 5×Laemmili sample buffer. The reactions were then heated at 70° C. for 10 min and resolved by 12% SDS-PAGE. Gels were stained by coomassie brilliant blue after fixation with 10% acetic acid and 40% methanol and then exposed to a Phosphoimager. Data were analyzed by ImageQuant 6.0 software.

LRRK1 WT [2] = molecular target: T1, LRRK1 WT; assay: In vitro kinase assay: LRRK1 autophosphorylation; settings: for IC50: Table 3, mean of three experiments
LRRK2 WT [3] = molecular target: T2, LRRK2 WT (Homo sapiens, UniProt Q5S007); assay: In vitro kinase assay: LRRK2 autophosphorylation; settings: for IC50: Table 2, mean of three experiments; for LRRK2 autophosphorylation Average ± SEM: compound 16 μM, phosphorylation normalized to absence of compound, mean ± S.E.M. of three experiments; for effect on WT LRRK2 autophosphorylation: dose-response; for effect on LRRK2 autophosphorylation: screen at 16 μM
LRRK2 G2019S [4] = molecular target: T3, LRRK2 G2019S (Homo sapiens, UniProt Q5S007, G2019S); assay: In vitro kinase assay: G2019S LRRK2-mediated MBP phosphorylation; settings: for IC50: Table 2, mean of three experiments; for effect on G2019S LRRK2 MBP phosphorylation: dose-response
LRRK2 G2019S [5] = molecular target: T3, LRRK2 G2019S; assay: In vitro kinase assay: G2019S LRRK2 autophosphorylation; settings: for IC50: Table 2, mean of three experiments; for effect on G2019S LRRK2 autophosphorylation: dose-response
LRRK2 WT [6] = molecular target: T2, LRRK2 WT; assay: In vitro kinase assay: LRRK2-mediated MBP phosphorylation; settings: for IC50: mean of three experiments; for MBP phosphorylation Average ± SEM: compound 16 μM, 30° C., 15 min, normalized to absence of compound, mean ± S.E.M. of three experiments; for effect on WT LRRK2 MBP phosphorylation: dose-response; for effect on LRRK2-mediated phosphorylation of MBP: screen at 16 μM

T3 sequence (Q5S007 whole entry G2019S): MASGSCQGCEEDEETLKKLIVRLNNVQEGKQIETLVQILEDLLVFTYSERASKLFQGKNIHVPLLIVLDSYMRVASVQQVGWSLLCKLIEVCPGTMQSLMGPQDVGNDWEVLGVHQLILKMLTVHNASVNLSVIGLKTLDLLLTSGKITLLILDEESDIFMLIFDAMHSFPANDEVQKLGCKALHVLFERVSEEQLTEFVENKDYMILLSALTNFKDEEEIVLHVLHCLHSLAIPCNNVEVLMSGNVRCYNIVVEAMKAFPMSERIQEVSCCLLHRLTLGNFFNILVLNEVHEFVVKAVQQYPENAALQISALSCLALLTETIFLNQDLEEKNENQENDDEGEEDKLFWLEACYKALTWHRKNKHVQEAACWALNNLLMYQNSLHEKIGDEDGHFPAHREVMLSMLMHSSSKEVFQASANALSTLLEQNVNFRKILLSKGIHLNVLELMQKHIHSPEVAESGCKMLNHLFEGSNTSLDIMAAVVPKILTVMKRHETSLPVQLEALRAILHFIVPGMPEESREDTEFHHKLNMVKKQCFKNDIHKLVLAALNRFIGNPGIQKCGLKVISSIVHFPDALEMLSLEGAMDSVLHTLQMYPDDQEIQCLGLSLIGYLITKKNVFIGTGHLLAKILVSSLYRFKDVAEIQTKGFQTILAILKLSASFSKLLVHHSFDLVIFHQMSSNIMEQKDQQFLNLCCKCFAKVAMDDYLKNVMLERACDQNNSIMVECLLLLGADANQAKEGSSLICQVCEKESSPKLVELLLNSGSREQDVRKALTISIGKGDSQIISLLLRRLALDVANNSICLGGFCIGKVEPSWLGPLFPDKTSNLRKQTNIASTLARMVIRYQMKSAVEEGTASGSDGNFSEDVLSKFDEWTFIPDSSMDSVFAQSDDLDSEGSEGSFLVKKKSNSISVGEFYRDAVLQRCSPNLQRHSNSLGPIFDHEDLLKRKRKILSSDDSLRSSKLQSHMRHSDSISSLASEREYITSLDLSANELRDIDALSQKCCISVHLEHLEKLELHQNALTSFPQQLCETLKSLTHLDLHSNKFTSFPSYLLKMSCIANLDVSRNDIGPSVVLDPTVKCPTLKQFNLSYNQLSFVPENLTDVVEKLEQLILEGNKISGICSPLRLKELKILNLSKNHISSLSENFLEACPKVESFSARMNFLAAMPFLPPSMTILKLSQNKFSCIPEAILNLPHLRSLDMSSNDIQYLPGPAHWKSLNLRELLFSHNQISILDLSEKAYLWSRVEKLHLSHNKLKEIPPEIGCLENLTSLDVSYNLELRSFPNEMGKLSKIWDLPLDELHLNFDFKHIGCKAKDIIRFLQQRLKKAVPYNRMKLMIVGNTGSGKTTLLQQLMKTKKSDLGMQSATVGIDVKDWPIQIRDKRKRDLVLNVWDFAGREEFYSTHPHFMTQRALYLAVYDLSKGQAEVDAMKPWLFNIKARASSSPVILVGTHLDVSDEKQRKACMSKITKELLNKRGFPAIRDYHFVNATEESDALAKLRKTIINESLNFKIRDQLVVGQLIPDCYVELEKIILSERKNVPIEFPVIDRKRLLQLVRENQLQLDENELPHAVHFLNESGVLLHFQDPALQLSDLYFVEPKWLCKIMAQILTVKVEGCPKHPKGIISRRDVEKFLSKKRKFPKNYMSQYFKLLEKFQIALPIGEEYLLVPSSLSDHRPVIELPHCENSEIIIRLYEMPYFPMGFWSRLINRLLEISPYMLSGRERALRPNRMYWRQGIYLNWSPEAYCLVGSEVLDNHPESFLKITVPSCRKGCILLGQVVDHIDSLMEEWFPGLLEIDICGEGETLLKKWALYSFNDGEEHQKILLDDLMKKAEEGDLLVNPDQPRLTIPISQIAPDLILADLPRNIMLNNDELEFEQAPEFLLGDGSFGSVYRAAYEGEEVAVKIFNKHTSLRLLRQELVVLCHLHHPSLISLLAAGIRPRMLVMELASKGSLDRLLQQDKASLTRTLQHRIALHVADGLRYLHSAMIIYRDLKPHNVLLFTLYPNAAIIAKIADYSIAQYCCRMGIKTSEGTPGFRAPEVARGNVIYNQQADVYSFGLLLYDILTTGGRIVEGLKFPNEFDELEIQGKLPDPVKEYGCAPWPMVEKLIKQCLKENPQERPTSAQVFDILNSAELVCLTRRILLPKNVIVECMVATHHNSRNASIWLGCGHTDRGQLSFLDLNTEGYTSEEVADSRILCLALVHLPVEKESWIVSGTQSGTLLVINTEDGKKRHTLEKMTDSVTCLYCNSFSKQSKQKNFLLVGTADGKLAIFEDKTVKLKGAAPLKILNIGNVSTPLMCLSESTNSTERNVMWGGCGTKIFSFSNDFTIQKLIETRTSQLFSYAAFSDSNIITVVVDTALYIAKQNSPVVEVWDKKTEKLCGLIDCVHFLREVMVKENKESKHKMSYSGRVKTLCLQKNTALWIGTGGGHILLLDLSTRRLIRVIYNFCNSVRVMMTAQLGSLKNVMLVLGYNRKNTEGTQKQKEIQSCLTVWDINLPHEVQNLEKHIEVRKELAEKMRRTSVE
G2019S LRRK2, sequence (Q5S007 whole entry G2019S): as above
T2 sequence (Q5S007 whole entry): as the sequence (Q5S007 whole entry G2019S) above, with S2019G counted along it
T1 sequence (Q38SD2 whole entry): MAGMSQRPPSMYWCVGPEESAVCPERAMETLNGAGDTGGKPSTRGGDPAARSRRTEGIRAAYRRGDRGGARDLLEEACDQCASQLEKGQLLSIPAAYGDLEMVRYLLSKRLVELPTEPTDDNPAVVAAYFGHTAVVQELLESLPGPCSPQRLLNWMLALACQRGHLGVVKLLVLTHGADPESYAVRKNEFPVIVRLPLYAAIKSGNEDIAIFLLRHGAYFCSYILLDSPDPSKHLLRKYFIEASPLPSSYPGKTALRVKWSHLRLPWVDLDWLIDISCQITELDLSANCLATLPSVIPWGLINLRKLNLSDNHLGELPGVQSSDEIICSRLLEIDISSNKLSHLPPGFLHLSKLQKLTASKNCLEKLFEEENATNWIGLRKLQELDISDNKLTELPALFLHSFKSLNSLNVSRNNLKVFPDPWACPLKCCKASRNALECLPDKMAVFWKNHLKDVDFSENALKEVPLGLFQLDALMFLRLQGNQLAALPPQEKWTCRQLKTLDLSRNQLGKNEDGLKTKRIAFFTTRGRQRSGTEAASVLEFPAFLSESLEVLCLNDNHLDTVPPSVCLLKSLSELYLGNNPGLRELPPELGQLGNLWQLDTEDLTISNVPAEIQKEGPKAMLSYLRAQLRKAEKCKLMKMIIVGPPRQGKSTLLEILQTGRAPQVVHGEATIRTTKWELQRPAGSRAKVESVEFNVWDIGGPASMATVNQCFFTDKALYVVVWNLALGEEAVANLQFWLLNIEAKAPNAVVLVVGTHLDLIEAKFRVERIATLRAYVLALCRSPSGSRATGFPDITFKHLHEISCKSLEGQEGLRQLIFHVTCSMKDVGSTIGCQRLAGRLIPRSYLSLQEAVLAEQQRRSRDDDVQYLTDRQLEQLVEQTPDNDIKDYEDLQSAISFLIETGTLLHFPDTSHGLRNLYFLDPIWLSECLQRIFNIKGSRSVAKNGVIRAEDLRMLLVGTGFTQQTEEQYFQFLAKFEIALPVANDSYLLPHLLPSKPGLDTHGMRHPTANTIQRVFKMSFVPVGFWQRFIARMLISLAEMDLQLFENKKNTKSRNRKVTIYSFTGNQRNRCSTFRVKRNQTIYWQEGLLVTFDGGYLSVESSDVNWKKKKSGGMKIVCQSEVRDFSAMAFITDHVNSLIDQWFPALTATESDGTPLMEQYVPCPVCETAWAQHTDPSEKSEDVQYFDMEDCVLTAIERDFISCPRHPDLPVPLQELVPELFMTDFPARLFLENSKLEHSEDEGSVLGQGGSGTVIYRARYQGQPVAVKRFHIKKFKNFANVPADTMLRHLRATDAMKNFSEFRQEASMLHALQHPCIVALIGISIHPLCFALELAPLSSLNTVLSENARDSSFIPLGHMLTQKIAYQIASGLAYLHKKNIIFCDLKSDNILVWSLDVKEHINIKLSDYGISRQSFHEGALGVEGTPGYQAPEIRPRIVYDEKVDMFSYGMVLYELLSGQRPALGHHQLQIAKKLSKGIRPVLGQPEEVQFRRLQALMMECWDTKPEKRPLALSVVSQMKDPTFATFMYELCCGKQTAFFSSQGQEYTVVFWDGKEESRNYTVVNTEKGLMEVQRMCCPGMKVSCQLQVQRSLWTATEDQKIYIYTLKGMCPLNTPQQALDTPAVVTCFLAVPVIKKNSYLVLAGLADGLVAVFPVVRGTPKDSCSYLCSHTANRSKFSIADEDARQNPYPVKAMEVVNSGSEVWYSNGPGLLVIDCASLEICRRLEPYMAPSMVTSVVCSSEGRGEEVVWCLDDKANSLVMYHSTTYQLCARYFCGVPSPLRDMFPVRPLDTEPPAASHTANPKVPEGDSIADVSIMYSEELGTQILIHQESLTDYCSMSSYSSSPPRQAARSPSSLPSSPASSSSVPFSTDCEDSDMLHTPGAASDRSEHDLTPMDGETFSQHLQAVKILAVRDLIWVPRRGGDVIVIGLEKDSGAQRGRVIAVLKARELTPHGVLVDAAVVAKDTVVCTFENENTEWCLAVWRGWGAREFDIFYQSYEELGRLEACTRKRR

Question: What does the source list for `O=C1Nc2ccccc2/C1=C1/Nc2ccccc2/C1=N\O` [Inhibitor 70, Indirubin-3-monooxine]?
Answer: effect on LRRK1 MBP phosphorylation (LRRK1 WT [1]): inhibited; IC50 (LRRK1 WT [1]): 3.1 µM; LRRK2-mediated phosphorylation of 4E-BP1 (G2019S LRRK2): inhibited; effect on LRRK1 autophosphorylation (LRRK1 WT [2]): inhibited; IC50 (LRRK1 WT [2]): 0.79 µM; IC50 (LRRK2 WT [3]): 1.75 µM; LRRK2 autophosphorylation Average ± SEM (LRRK2 WT [3]): 6.0 ± 6.5 % of control; effect on WT LRRK2 autophosphorylation (LRRK2 WT [3]): inhibited; effect on LRRK2 autophosphorylation (LRRK2 WT [3]): substantially inhibited; IC50 (LRRK2 G2019S [4]): 1.31 µM; effect on G2019S LRRK2 MBP phosphorylation (LRRK2 G2019S [4]): inhibited; IC50 (LRRK2 G2019S [5]): 0.38 µM; effect on G2019S LRRK2 autophosphorylation (LRRK2 G2019S [5]): inhibited; IC50 (LRRK2 WT [6]; Table 2): 4.83 µM; IC50 (LRRK2 WT [6]; Table 3): 4.83 µM; MBP phosphorylation Average ± SEM (LRRK2 WT [6]): 33.1 ± 15.7 % of control; effect on WT LRRK2 MBP phosphorylation (LRRK2 WT [6]): inhibited; effect on LRRK2-mediated phosphorylation of MBP (LRRK2 WT [6]): substantially inhibited

Question: For `Cc1ccc(NC(=O)c2cccc(N(C)C)c2)cc1NC(=O)c1ccc(O)cc1` [Inhibitor 53, ZM336372], which “effect on LRRK1 MBP phosphorylation” value (LRRK1 WT [1]) is on record?
Answer: minimal to no effect

Question: And the “LRRK2-mediated phosphorylation of 4E-BP1” value (G2019S LRRK2)?
Answer: did not inhibit

Question: And the “effect on LRRK1 autophosphorylation” value (LRRK1 WT [2])?
Answer: minimal to no effect

Question: What about the “effect on WT LRRK2 autophosphorylation” value (LRRK2 WT [3]) of the same compound?
Answer: no effect

Question: And the “effect on G2019S LRRK2 MBP phosphorylation” value (LRRK2 G2019S [4])?
Answer: no effect

Question: And the “effect on G2019S LRRK2 autophosphorylation” value (LRRK2 G2019S [5])?
Answer: no effect

Question: And the “effect on WT LRRK2 MBP phosphorylation” value (LRRK2 WT [6])?
Answer: no effect

Question: How did the IC50 (LRRK1 WT [1]) turn out when `O=C1Nc2ccc(I)cc2/C1=C/c1cc(Br)c(O)c(Br)c1` [Inhibitor 56, GW5074] was run?
Answer: 3.25 µM

Question: What about the “LRRK2-mediated phosphorylation of 4E-BP1” value (G2019S LRRK2) of the same compound?
Answer: inhibited

Question: What about the IC50 (LRRK1 WT [2]) of the same compound?
Answer: 0.73 µM

Question: What about the IC50 (LRRK2 WT [3]) of the same compound?
Answer: 0.88 µM

Question: And the “LRRK2 autophosphorylation Average ± SEM” value (LRRK2 WT [3])?
Answer: 4.6 ± 2.9 % of control

Question: What about the “effect on LRRK2 autophosphorylation” value (LRRK2 WT [3]) of the same compound?
Answer: substantially inhibited

Question: And the IC50 (LRRK2 G2019S [4])?
Answer: 0.88 µM

Question: What about the IC50 (LRRK2 G2019S [5]) of the same compound?
Answer: 0.22 µM

Question: What about the IC50 (LRRK2 WT [6]; Table 2) of the same compound?
Answer: 3.15 µM

Question: What about the IC50 (LRRK2 WT [6]; Table 3) of the same compound?
Answer: 1.09 µM

Question: What about the “MBP phosphorylation Average ± SEM” value (LRRK2 WT [6]) of the same compound?
Answer: 4.7 ± 4.1 % of control

Question: And the “effect on LRRK2-mediated phosphorylation of MBP” value (LRRK2 WT [6])?
Answer: substantially inhibited
